US20230398130A1, “METHODS AND COMPOSITIONS FOR DIFFERENTIATING STEM CELLS” (Massachusetts Institute of Technology, priority 2020, published 2023)

Legend:
ISC-enriched organoids [1] = test: Primary screen, 384-well 2.5-D organoid differentiation (ENR+CD, 6 days, Target Selective Inhibitor Library, vs whole-plate median): ATP (CellTiter-Glo 3D, CTG); settings: for Dose.FC.CTG: FC vs plate median; for Z.CTG: standard z score of FC; for Dose.FC.CTG (log 2 fold change, ATP): vs plate median
ISC-enriched organoids [2] = test: Primary screen, 384-well 2.5-D organoid differentiation (ENR+CD, 6 days): basal lysozyme secretion (LYZ.NS); assay type: cell-based, murine; settings: for Dose.FC.LYZ.NS: FC vs plate median; for Z.LYZ.NS: standard z score of FC; for Dose.FC.LYZ.NS (log 2 fold change, basal lysozyme secretion): vs plate median
Description: (§1) High-throughput screening.

ISC-enriched organoids [3] = test: Primary screen, 384-well 2.5-D organoid differentiation (ENR+CD, 6 days): carbachol-induced lysozyme secretion (LYZ.S); assay type: cell-based, murine; settings: for Dose.FC.LYZ.S: FC vs plate median; for Dose.FC.LYZ.S (log 2 fold change, carbachol-induced lysozyme secretion): vs plate median
Description: as §1

Row | Structure (SMILES) | Dose.FC.CTG (ISC-enriched organoids [1]; Dose 0.08 uM, ENR+CD, 6 days) [log 2 fold change] | Z.CTG (ISC-enriched organoids [1]; Dose 0.08 uM) | Dose.FC.CTG (ISC-enriched organoids [1]; Dose 0.40 uM, ENR+CD, 6 days) [log 2 fold change] | Z.CTG (ISC-enriched organoids [1]; Dose 0.40 uM) | Dose.FC.CTG (ISC-enriched organoids [1]; Dose 2.00 uM, ENR+CD, 6 days) [log 2 fold change] | Z.CTG (ISC-enriched organoids [1]; Dose 2.00 uM) | Dose.FC.CTG (ISC-enriched organoids [1]; Dose 10.00 uM, ENR+CD, 6 days) [log 2 fold change] | Z.CTG (ISC-enriched organoids [1]; Dose 10.00 uM) | Dose.FC.LYZ.NS (ISC-enriched organoids [2]; Dose 0.08 uM, ENR+CD, 6 days) [log 2 fold change] | Z.LYZ.NS (ISC-enriched organoids [2]; Dose 0.08 uM) | Dose.FC.LYZ.NS (ISC-enriched organoids [2]; Dose 0.40 uM, ENR+CD, 6 days) [log 2 fold change] | Z.LYZ.NS (ISC-enriched organoids [2]; Dose 0.40 uM) | Dose.FC.LYZ.NS (ISC-enriched organoids [2]; Dose 2.00 uM, ENR+CD, 6 days) [log 2 fold change] | Z.LYZ.NS (ISC-enriched organoids [2]; Dose 2.00 uM) | Dose.FC.LYZ.NS (ISC-enriched organoids [2]; Dose 10.00 uM, ENR+CD, 6 days) [log 2 fold change] | Z.LYZ.NS (ISC-enriched organoids [2]; Dose 10.00 uM) | Dose.FC.LYZ.S (ISC-enriched organoids [3]; Dose 0.08 uM, ENR+CD, 6 days) [log 2 fold change] | Dose.FC.LYZ.S (ISC-enriched organoids [3]; Dose 0.40 uM, ENR+CD, 6 days) [log 2 fold change] | Dose.FC.LYZ.S (ISC-enriched organoids [3]; Dose 2.00 uM, ENR+CD, 6 days) [log 2 fold change] | Dose.FC.LYZ.S (ISC-enriched organoids [3]; Dose 10.00 uM, ENR+CD, 6 days) [log 2 fold change] | also measured
1 | O=C(O)c1cc2cccc([N+](=O)[O-])c2[nH]1 [CRT0044876] | −0.171 | −0.410 | −0.040 | −0.096 | −0.081 | −0.192 | −0.099 | −0.237 | 0.016 | 0.135 | 0.034 | 0.298 | 0.047 | 0.408 | 0.032 | 0.278 | −0.002 | 0.055 | 0.014 | −0.061 | 
2 | CC(=O)c1c(C)c2cnc(Nc3ccc(N4CCNCC4)cn3)nc2n(C2CCCC2)c1=O.Cl [Palbociclib (PD-0332991) HCl] |  | 0.404 |  | −0.836 |  | −0.199 |  | −1.617 |  | −0.055 |  | −0.248 |  | −0.440 |  | −1.150 |  |  |  |  | Dose.FC.CTG (ISC-enriched organoids [1]; Dose 0.08 uM, primary screen): 0.169 log 2 fold change; Dose.FC.CTG (ISC-enriched organoids [1]; Dose 0.40 uM, primary screen): −0.350 log 2 fold change; Dose.FC.CTG (ISC-enriched organoids [1]; Dose 2.00 uM, primary screen): −0.083 log 2 fold change; Dose.FC.CTG (ISC-enriched organoids [1]; Dose 10.00 uM, primary screen): −0.677 log 2 fold change; Dose.FC.LYZ.NS (ISC-enriched organoids [2]; Dose 0.08 uM, primary screen): −0.006 log 2 fold change; Dose.FC.LYZ.NS (ISC-enriched organoids [2]; Dose 0.40 uM, primary screen): −0.029 log 2 fold change; Dose.FC.LYZ.NS (ISC-enriched organoids [2]; Dose 2.00 uM, primary screen): −0.051 log 2 fold change; Dose.FC.LYZ.NS (ISC-enriched organoids [2]; Dose 10.00 uM, primary screen): −0.132 log 2 fold change; Dose.FC.LYZ.S (ISC-enriched organoids [3]; Dose 0.08 uM, primary screen): 0.004 log 2 fold change; Dose.FC.LYZ.S (ISC-enriched organoids [3]; Dose 0.40 uM, primary screen): −0.042 log 2 fold change; Dose.FC.LYZ.S (ISC-enriched organoids [3]; Dose 2.00 uM, primary screen): −0.122 log 2 fold change; Dose.FC.LYZ.S (ISC-enriched organoids [3]; Dose 10.00 uM, primary screen): −0.203 log 2 fold change
3 | CN[C@@H](C)C(=O)N[C@H](C(=O)N1CCC[C@H]1C(=O)Nc1snnc1-c1ccccc1)C1CCCCC1 [GDC-0152] | 0.151 | 0.361 | 0.158 | 0.377 | 0.003 | 0.008 | 0.241 | 0.575 | −0.002 | −0.013 | −0.020 | −0.176 | 0.083 | 0.724 | 0.103 | 0.900 | −0.020 | −0.036 | −0.057 | −0.009 | 
4 | COc1cc2ncnc(Nc3ccc(Cl)cc3F)c2cc1OC [ZM 306416] |  |  |  |  |  |  |  |  |  |  |  |  |  |  |  |  |  |  |  |  | Z.CTG (standard z score) (ISC-enriched organoids [1]; dose 0.08 uM): −0.190; Dose.FC.CTG (log 2 fold change, ATP) (ISC-enriched organoids [1]; dose 0.08 uM): −0.080; Z.CTG (standard z score) (ISC-enriched organoids [1]; dose 0.40 uM): −1.155; Dose.FC.CTG (log 2 fold change, ATP) (ISC-enriched organoids [1]; dose 0.40 uM): −0.483; Z.CTG (standard z score) (ISC-enriched organoids [1]; dose 2.00 uM): −3.135; Dose.FC.CTG (log 2 fold change, ATP) (ISC-enriched organoids [1]; dose 2.00 uM): −1.312; Z.CTG (standard z score) (ISC-enriched organoids [1]; dose 10.00 uM): −3.559; Dose.FC.CTG (log 2 fold change, ATP) (ISC-enriched organoids [1]; dose 10.00 uM): −1.490; Z.LYZ.NS (standard z score) (ISC-enriched organoids [2]; dose 0.08 uM): 0.912; Dose.FC.LYZ.NS (log 2 fold change, basal lysozyme secretion) (ISC-enriched organoids [2]; dose 0.08 uM): 0.105; Z.LYZ.NS (standard z score) (ISC-enriched organoids [2]; dose 0.40 uM): −1.942; Dose.FC.LYZ.NS (log 2 fold change, basal lysozyme secretion) (ISC-enriched organoids [2]; dose 0.40 uM): −0.223; Z.LYZ.NS (standard z score) (ISC-enriched organoids [2]; dose 2.00 uM): −2.531; Dose.FC.LYZ.NS (log 2 fold change, basal lysozyme secretion) (ISC-enriched organoids [2]; dose 2.00 uM): −0.291; Z.LYZ.NS (standard z score) (ISC-enriched organoids [2]; dose 10.00 uM): −2.395; Dose.FC.LYZ.NS (log 2 fold change, basal lysozyme secretion) (ISC-enriched organoids [2]; dose 10.00 uM): −0.275; Dose.FC.LYZ.S (log 2 fold change, carbachol-induced lysozyme secretion) (ISC-enriched organoids [3]; dose 0.08 uM): 0.006; Dose.FC.LYZ.S (log 2 fold change, carbachol-induced lysozyme secretion) (ISC-enriched organoids [3]; dose 0.40 uM): −0.288; Dose.FC.LYZ.S (log 2 fold change, carbachol-induced lysozyme secretion) (ISC-enriched organoids [3]; dose 2.00 uM): −0.403; Dose.FC.LYZ.S (log 2 fold change, carbachol-induced lysozyme secretion) (ISC-enriched organoids [3]; dose 10.00 uM): −0.431
